In US4515941A, “23-Demycinosyldesmycosin derivatives” (Toyo Jozo Kabushiki Kaisha, priority 1982, dated 1985):
Values after ≈ are worked out from the molar mass of the structure shown. Like-named read-outs stand apart in the source and are kept apart here.

What was measured:
Type in all cases: cell-based
[1] = system: Staphylococcus aureus MS353 C36; experiment: MIC, Staphylococcus aureus MS353 C36; conditions: MS353C36
[2] = system: Escherichia coli B; experiment: MIC, Escherichia coli B
[3] = system: Corynebacterium diptheriae P.Y.8; experiment: MIC, Corynebacterium diptheriae P.Y.8; conditions: Corynebacterium diptheriae P.Y.8; read-out: MIC
[4] = system: Pseudomonas aeruginosa IAM 1095; experiment: MIC, Pseudomonas aeruginosa IAM 1095; conditions: IAM1095; Pseudomonas aeruginosa IAM 1095; read-out: MIC
[5] = system: Serratia marcescens; experiment: MIC, Serratia marcescens; conditions: read-out: MIC
[6] = system: Staphylococcus aureus ATCC 6538P; experiment: MIC, Staphylococcus aureus ATCC 6538P; conditions: ATCC6538P, read-out: MIC
[7] = system: Shigella sonnei E33; experiment: MIC, Shigella sonnei E33
[8] = system: Bacillus subtilis ATC 6633; experiment: MIC, Bacillus subtilis ATC 6633; conditions: ATC6633; Bacillus subtilis ATC 6633; read-out: MIC
[9] = system: Staphylococcus aureus 0119; experiment: MIC, Staphylococcus aureus 0119 (macrolide resistant); conditions: macrolide resistant bacteria A group
Description: (§1) *macrolide resistant bacteria A group (clinical isolates of erythromycin,
(§2) oleandomycin and 16membered macrolide antibiotic resistant strains.)

[10] = system: Proteus vulgaris OX19; experiment: MIC, Proteus vulgaris OX19; conditions: Proteus vulgaris OX19; read-out: MIC
[11] = system: Streptococcus agalactiae 1020; experiment: MIC, Streptococcus agalactiae 1020; conditions: Streptococcus agalactiae 1020; read-out: MIC
[12] = system: Streptococcus faecalis 1501; experiment: MIC, Streptococcus faecalis 1501; conditions: Enterococcus faecalis; Streptococcus faecalis 1501; read-out: MIC
[13] = system: Staphylococcus epidermis sp-al-1; experiment: MIC, Staphylococcus epidermis sp-al-1; conditions: SPAL1; Staphylococcus epidermis sp-al-1; read-out: MIC
[14] = system: Salmonella enteritidis Gaertner; experiment: MIC, Salmonella enteritidis Gaertner; conditions: Salmonella enterica; Salmonella enteritidis Gaertner; read-out: MIC
[15] = system: Salmonella typhosa H901; experiment: MIC, Salmonella typhosa H901; conditions: Salmonella enterica, TYPHOSA
[16] = system: Staphylococcus aureus MS353 A0; experiment: MIC, Staphylococcus aureus MS353 A0 (macrolide resistant); conditions: MS353A0, macrolide resistant bacteria A group
Description: as §1, §2

[17] = system: Streptococcus pyogenes N.Y.5; experiment: MIC, Streptococcus pyogenes N.Y.5; conditions: read-out: MIC
[18] = system: Staphylococcus aureus MS353; experiment: MIC, Staphylococcus aureus MS353; conditions: Staphylococcus aureus MS353; read-out: MIC
[19] = system: Shigella flexineri type 3a; experiment: MIC, Shigella flexineri type 3a; conditions: TYPE3A
[20] = system: Sarcina lutea ATCC 9341; experiment: MIC, Sarcina lutea ATCC 9341; conditions: Micrococcus luteus, ATCC9341
[21] = system: Micrococcus flavus ATCC 10240; experiment: MIC, Micrococcus flavus ATCC 10240; conditions: ATCC10240; Micrococcus flavus ATCC 10240; read-out: MIC
[22] = system: Escherichia coli NIHJ-JC2; experiment: MIC, Escherichia coli NIHJ-JC2; conditions: NIHJJC2
[23] = system: Streptococcus pyogenes 1022; experiment: MIC, Streptococcus pyogenes 1022 (macrolide resistant); conditions: macrolide resistant bacteria A group
Description: as §1, §2

[24] = system: Staphylococcus aureus 0127; experiment: MIC, Staphylococcus aureus 0127 (macrolide resistant)
Description: as §1, §2

[25] = system: Klebsiella pneumoniae ATCC 10031; experiment: MIC, Klebsiella pneumoniae ATCC 10031; conditions: ATCC10031; Klebsiella pneumoniae ATCC 10031; read-out: MIC
[26] = Streptococcus pyogenes 1022, read-out: MIC
[27] = Staphylococcus aureus 0127, macrolide resistant bacteria A group, read-out: MIC

Compound | MIC [1] [µg/mL] | MIC [2] [µg/mL] | MIC [3] [µg/mL] | MIC [4] [µg/mL] | MIC [5] [µg/mL] | MIC [6] [µg/mL] | MIC [7] [µg/mL] | MIC [8] [µg/mL] | MIC [9] [µg/mL] | MIC [10] [µg/mL] | MIC [11] [µg/mL] | MIC [12] [µg/mL] | MIC [13] [µg/mL] | MIC [14] [µg/mL] | MIC [15] [µg/mL] | MIC [16] [µg/mL] | MIC [17] [µg/mL] | MIC [18] [µg/mL] | MIC [19] [µg/mL] | MIC [20] [µg/mL] | other results
CCC1OC(=O)CC(O)C(C)C(OC2OC(C)C(O)C(N(C)C)C2O)C(CC=O)CC(C)C(=O)C=CC(C)=CC1COc1ccc(C)cc1 (stereo not shown) | 0.2 (≈ 0.291 µM) | 50 (≈ 72.7 µM) | ≤ 0.05 | > 100 | 100 (≈ 145 µM) | 0.2 (≈ 0.291 µM) | > 100 | 0.1 (≈ 0.145 µM) | 50 (≈ 72.7 µM) | 25 (≈ 36.3 µM) | ≤ 0.05 | 0.1 (≈ 0.145 µM) | ≤ 0.05 | > 100 | > 100 | 50 (≈ 72.7 µM) | ≤ 0.05 | 0.2 (≈ 0.291 µM) | 50 (≈ 72.7 µM) | ≤ 0.05 | MIC [21]: ≤ 0.05 µg/mL; MIC [22]: 100 µg/mL (≈ 145 µM); MIC [23, 26]: 25 µg/mL (≈ 36.3 µM); MIC [24, 27]: 50 µg/mL (≈ 72.7 µM); MIC [25]: 6.3 µg/mL (≈ 9.16 µM)
CCc1ccc(OCC2C=C(C)C=CC(=O)C(C)CC(CC=O)C(OC3OC(C)C(O)C(N(C)C)C3O)C(C)C(O)CC(=O)OC2CC)cc1 (stereo not shown) | 0.4 (≈ 0.57 µM) | > 100 | ≤ 0.05 | > 100 | > 100 | 0.4 (≈ 0.57 µM) | > 100 | 0.4 (≈ 0.57 µM) | 25 (≈ 35.6 µM) | 100 (≈ 142 µM) | 0.1 (≈ 0.142 µM) | 0.4 (≈ 0.57 µM) | 0.2 (≈ 0.285 µM) | > 100 | > 100 | 25 (≈ 35.6 µM) | 0.1 (≈ 0.142 µM) | 0.4 (≈ 0.57 µM) | > 100 | ≤ 0.05 | MIC [21]: ≤ 0.05 µg/mL; MIC [22]: > 100 µg/mL; MIC [23, 26]: 12.5 µg/mL (≈ 17.8 µM); MIC [24, 27]: 25 µg/mL (≈ 35.6 µM); MIC [25]: 6.3 µg/mL (≈ 8.98 µM)
CCC1OC(=O)CC(O)C(C)C(OC2OC(C)C(O)C(N(C)C)C2O)C(CC=O)CC(C)C(=O)C=CC(C)=CC1COc1ccc(Cl)cc1 (stereo not shown) | ≤ 0.05 | 50 (≈ 70.6 µM) | ≤ 0.05 | > 100 | 50 (≈ 70.6 µM) | 0.1 (≈ 0.141 µM) | 50 (≈ 70.6 µM) | 0.1 (≈ 0.141 µM) | 50 (≈ 70.6 µM) | 12.5 (≈ 17.6 µM) | ≤ 0.05 | 0.1 (≈ 0.141 µM) | ≤ 0.05 | > 100 | > 100 | 25 (≈ 35.3 µM) | ≤ 0.05 | 0.1 (≈ 0.141 µM) | 6.3 (≈ 8.89 µM) | ≤ 0.05 | MIC [21]: ≤ 0.05 µg/mL; MIC [22]: 50 µg/mL (≈ 70.6 µM); MIC [23, 26]: 12.5 µg/mL (≈ 17.6 µM); MIC [24, 27]: 25 µg/mL (≈ 35.3 µM); MIC [25]: 3.1 µg/mL (≈ 4.38 µM)
CCC1OC(=O)CC(O)C(C)C(OC2OC(C)C(O)C(N(C)C)C2O)C(CC=O)CC(C)C(=O)C=CC(C)=CC1COc1ccc(Br)cc1 (stereo not shown) | 0.2 (≈ 0.266 µM) | 25 (≈ 33.2 µM) | ≤ 0.05 | > 100 | 50 (≈ 66.4 µM) | 0.1 (≈ 0.133 µM) | 100 (≈ 133 µM) | 0.2 (≈ 0.266 µM) | 25 (≈ 33.2 µM) | 25 (≈ 33.2 µM) | ≤ 0.05 | 0.2 (≈ 0.266 µM) | 0.1 (≈ 0.133 µM) | > 100 | > 100 | 25 (≈ 33.2 µM) | ≤ 0.05 | 0.2 (≈ 0.266 µM) | 12.5 (≈ 16.6 µM) | ≤ 0.05 | MIC [21]: ≤ 0.05 µg/mL; MIC [22]: 100 µg/mL (≈ 133 µM); MIC ([23]; Streptococcus pyogenes, 1022, Streptococcus pyogenes 1022): 12.5 µg/mL (≈ 16.6 µM); MIC [24, 27]: 25 µg/mL (≈ 33.2 µM); MIC [25]: 3.1 µg/mL (≈ 4.12 µM)
CCC1OC(=O)CC(O)C(C)C(OC2OC(C)C(O)C(N(C)C)C2O)C(CC=O)CC(C)C(=O)C=CC(C)=CC1COc1ccc(Cl)cc1Cl (stereo not shown) | 0.1 (≈ 0.135 µM) | > 100 | ≤ 0.05 | > 100 | 25 (≈ 33.7 µM) | 0.2 (≈ 0.269 µM) | > 100 | 0.1 (≈ 0.135 µM) | 25 (≈ 33.7 µM) | 25 (≈ 33.7 µM) | ≤ 0.05 | 0.1 (≈ 0.135 µM) | ≤ 0.05 | > 100 | > 100 | 12.5 (≈ 16.8 µM) | ≤ 0.05 | 0.2 (≈ 0.269 µM) | 25 (≈ 33.7 µM) | ≤ 0.05 | MIC [21]: ≤ 0.05 µg/mL; MIC [22]: > 100 µg/mL; MIC [23, 26]: 6.3 µg/mL (≈ 8.48 µM); MIC ([24]; Staphylococcus aureus, 0127): 12.5 µg/mL (≈ 16.8 µM); MIC [25]: 3.1 µg/mL (≈ 4.17 µM)
CCC1OC(=O)CC(O)C(C)C(OC2OC(C)C(O)C(N(C)C)C2O)C(CC=O)CC(C)C(=O)C=CC(C)=CC1COc1ccc(OC)cc1 (stereo not shown) | 0.1 (≈ 0.142 µM) | 100 (≈ 142 µM) | ≤ 0.05 | > 100 | > 100 | 0.2 (≈ 0.284 µM) | > 100 | 0.2 (≈ 0.284 µM) | > 100 | 50 (≈ 71 µM) | ≤ 0.05 | 0.2 (≈ 0.284 µM) | ≤ 0.05 | > 100 | > 100 | 100 (≈ 142 µM) | ≤ 0.05 | 0.2 (≈ 0.284 µM) | 50 (≈ 71 µM) | ≤ 0.05 | MIC [21]: ≤ 0.05 µg/mL; MIC [22]: > 100 µg/mL; MIC [23, 26]: 100 µg/mL (≈ 142 µM); MIC [24, 27]: > 100 µg/mL; MIC [25]: 3.1 µg/mL (≈ 4.4 µM)
CCC1OC(=O)CC(O)C(C)C(OC2OC(C)C(O)C(N(C)C)C2O)C(CC=O)CC(C)C(=O)C=CC(C)=CC1COc1cccc([N+](=O)[O-])c1 (stereo not shown) | 0.1 (≈ 0.139 µM) | 50 (≈ 69.6 µM) | ≤ 0.05 | 50 (≈ 69.6 µM) | 50 (≈ 69.6 µM) | 0.1 (≈ 0.139 µM) | 100 (≈ 139 µM) | ≤ 0.05 | > 100 | 25 (≈ 34.8 µM) | ≤ 0.05 | 0.1 (≈ 0.139 µM) | ≤ 0.05 | > 100 | 100 (≈ 139 µM) | 100 (≈ 139 µM) | ≤ 0.05 | 0.1 (≈ 0.139 µM) | 12.5 (≈ 17.4 µM) | ≤ 0.05 | MIC [21]: ≤ 0.05 µg/mL; MIC [22]: 100 µg/mL (≈ 139 µM); MIC [23, 26]: 50 µg/mL (≈ 69.6 µM); MIC [24, 27]: 100 µg/mL (≈ 139 µM); MIC [25]: 1.6 µg/mL (≈ 2.23 µM)
